# Data from patent US12383567B2, “Use of cannabinoids in the treatment of epilepsy” (Jazz Pharmaceuticals Research UK Limited, priority 2017, dated 2025).
# Test: Drug-drug interaction between cannabidiol (CBD) and tacrolimus in an epilepsy patient (clinical trial, open label phase)
# Type: in vivo, human
# Experimental: The patient was a person with refractory epilepsy receiving the immunosuppressant drug tacrolimus for interstitial nephritis.
# The patient had been stable on tacrolimus at a dose of 5 mg twice per day for a year prior to entry into a clinical trial on the use of CBD to treat childhood-onset epilepsy. At the time of entry into the study their blood level of tacrolimus was between 3.9 and 8.4 ng/mL.
# The patient was initially randomized to the sesame oil placebo arm of the trial, during this phase there was no change in the levels of tacrolimus or serum creatine.
# The dose of tacrolimus was reduced repeatedly while receiving CBD as described in FIG. 1. A dose of 0.5 mg twice per day (a 10-fold reduction) was finally reached.
# [1] = during the time the subject was taking CBD with tacrolimus
structure (smiles),measurement,setting,value
"C=C(C)[C@@H]1CCC(C)=C[C@H]1c1c(O)cc(CCCCC)cc1O [CBD, Cannabidiol]",blood urea nitrogen (BUN) change,[1],significant increase
same,serum creatine levels change,[1],significant increase
same,tacrolimus toxicity,"open label phase, receiving CBD concurrently with tacrolimus",signs of tacrolimus toxicity
